Numbers after ± are expanded uncertainties.
Conditions: Liquid

SMILES	vapor or sublimation pressure (348.15 K) [kPa]	vapor or sublimation pressure (353.15 K) [kPa]	vapor or sublimation pressure (363.15 K) [kPa]	vapor or sublimation pressure (368.15 K) [kPa]	vapor or sublimation pressure (373.15 K) [kPa]	vapor or sublimation pressure (378.15 K) [kPa]	vapor or sublimation pressure (388.15 K) [kPa]	vapor or sublimation pressure (393.15 K) [kPa]	vapor or sublimation pressure (398.15 K) [kPa]	vapor or sublimation pressure (403.15 K) [kPa]	vapor or sublimation pressure (408.15 K) [kPa]	vapor or sublimation pressure (413.15 K) [kPa]	vapor or sublimation pressure (418.15 K) [kPa]	vapor or sublimation pressure (423.15 K) [kPa]	further results
CC(=O)N(C)C [N,N-dimethylethanamide]	4.135 ± 0.031	5.192 ± 0.037	7.995 ± 0.046	9.806 ± 0.054	11.98 ± 0.063	14.52 ± 0.074	21.01 ± 0.1	25.03 ± 0.12	29.69 ± 0.13	35.02 ± 0.15	41.11 ± 0.18	48.06 ± 0.2	55.91 ± 0.23	64.78 ± 0.26	vapor or sublimation pressure (298.15 K): 0.2936 ± 0.0067 kPa; vapor or sublimation pressure (303.15 K): 0.3925 ± 0.0082 kPa; vapor or sublimation pressure (308.15 K): 0.5179 ± 0.01 kPa; vapor or sublimation pressure (313.15 K): 0.6782 ± 0.013 kPa; vapor or sublimation pressure (318.15 K): 0.8946 ± 0.016 kPa; vapor or sublimation pressure (323.15 K): 1.163 ± 0.02 kPa; vapor or sublimation pressure (328.15 K): 1.526 ± 0.021 kPa; vapor or sublimation pressure (333.15 K): 1.983 ± 0.023 kPa; vapor or sublimation pressure (338.15 K): 2.556 ± 0.025 kPa; vapor or sublimation pressure (343.15 K): 3.27 ± 0.028 kPa; vapor or sublimation pressure (383.15 K): 17.5 ± 0.086 kPa
CC1COC(=O)O1 (stereo not given) [4-methyl-1,3-dioxolan-2-one]	0.2509 ± 0.024	0.3277 ± 0.029	0.5553 ± 0.043	0.7206 ± 0.053	0.9231 ± 0.066	1.167 ± 0.081	1.856 ± 0.086	2.284 ± 0.092	2.826 ± 0.099	3.482 ± 0.11	4.265 ± 0.12	5.153 ± 0.13	6.226 ± 0.14	7.454 ± 0.16	vapor or sublimation pressure (358.15 K): 0.4377 ± 0.035 kPa; vapor or sublimation pressure (428.15 K): 8.959 ± 0.18 kPa; vapor or sublimation pressure (433.15 K): 10.78 ± 0.21 kPa; vapor or sublimation pressure (438.15 K): 12.69 ± 0.23 kPa; vapor or sublimation pressure (443.15 K): 14.81 ± 0.26 kPa; vapor or sublimation pressure (448.15 K): 17.81 ± 0.3 kPa; vapor or sublimation pressure (453.15 K): 20.5 ± 0.34 kPa; vapor or sublimation pressure (458.15 K): 24.08 ± 0.39 kPa; vapor or sublimation pressure (463.15 K): 27.96 ± 0.44 kPa; vapor or sublimation pressure (468.15 K): 33.01 ± 0.51 kPa; vapor or sublimation pressure (473.15 K): 37.77 ± 0.56 kPa

Reference: the NIST ThermoML archive (doi:10.1021/je049950g)
